The text below walks through data of patent US11840686B2, “Modulation of prekallikrein (PKK) expression” (Ionis Pharmaceuticals, Inc., priority 2013, dated 2023).

Strand notation (5' to 3'): a small letter for the sugar, then the base; units joined by * are phosphorothioate-linked, units joined directly phosphodiester-linked; [ ] holds rarer units or linkages, { } end groups; capitals alone tell only the bases. e = 2'-O-(2-methoxyethyl) (MOE); k = constrained ethyl (cEt); [5mC] = 5-methylcytosine; d = 2'-deoxy (DNA)

The first data set relates to human PKK mRNA. The data set is described as follows: Antisense inhibition of human PKK mRNA in HepaRG cells, 1,000 nM, MOE/deoxy/cEt oligonucleotides (Example 3). It counts as cell-based. To be noted: HepaRG cells, electroporation with 1,000 nM antisense oligonucleotide, approximately 24 hours, primer probe set RTS3454, relative to untreated control cells; experiment of Table 24. Put shortly: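 HepaRG cells at 20,000 per well electroporated with 1,000 nM 16-mer MOE/cEt/deoxy gapmers (phosphorothioate, 5-methylcytosine). After about 24 h, PKK mRNA measured by qRT-PCR with primer probe set RTS3454, normalized to RIBOGREEN total RNA. Reported as percent inhibition versus untreated cells.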
With “548064 (eT*eG*kG*dT*dA*dT*dA*dA*dA*dT*dT*dG*dT*kG*k[5mC]*eT; antisense) [compound 548064]”, the % inhibition (as a rule, the percentage by which the read-out fell short of the control) is recorded as 54%.
Still for that read-out and setting: next, “548065 (eT*eT*kG*dG*dT*dA*dT*dA*dA*dA*dT*dT*dG*kT*kG*e[5mC]; antisense) [compound 548065]”: 22%; “548067 (e[5mC]*eA*kG*dT*dT*dG*dG*dT*dA*dT*dA*dA*dA*kT*kT*eG; antisense) [compound 548067]”: 18%.
Same read-out and setting: next, “548068 (e[5mC]*eA*kA*d[5mC]*dA*dG*dT*dT*dG*dG*dT*dA*dT*kA*kA*eA; antisense) [compound 548068]”: 0%.
Still for that read-out and setting: with “548071 (eA*eG*kA*dA*dG*d[5mC]*d[5mC]*d[5mC]*d[5mC]*dA*dT*d[5mC]*d[5mC]*kG*kG*eT; antisense) [compound 548071]” the figure was 55%.
On to “548072 (eT*eT*kT*d[5mC]*dT*d[5mC]*d[5mC]*dT*dT*d[5mC]*dG*dA*dG*kA*kA*eG; antisense) [compound 548072]”, for which the “% inhibition” value stood at 33%.
On to “548073 (e[5mC]*eT*kT*dT*d[5mC]*dT*d[5mC]*d[5mC]*dT*dT*d[5mC]*dG*dA*kG*kA*eA; antisense) [compound 548073]”, for which the “% inhibition” value is 24%.

The data set is the same for the next values; noted with them: Table 19; HepaRG cells, electroporation with 1,000 nM antisense oligonucleotide, approximately 24 hours; PKK mRNA by RT-PCR (RTS3454), relative to untreated control cells.
Consider “548074 (e[5mC]*e[5mC]*kT*dT*dT*d[5mC]*dT*d[5mC]*d[5mC]*dT*dT*d[5mC]*dG*kA*kG*eA; antisense) [compound 548074]”, for which the “% inhibition” value was found to be 0%.
The same measure, in the same setting: next, “548075 (eA*e[5mC]*k[5mC]*dT*dT*dT*d[5mC]*dT*d[5mC]*d[5mC]*dT*dT*d[5mC]*kG*kA*eG; antisense) [compound 548075]”: 0%; “548076 (e[5mC]*eA*k[5mC]*d[5mC]*dT*dT*dT*d[5mC]*dT*d[5mC]*d[5mC]*dT*dT*k[5mC]*kG*eA; antisense) [compound 548076]”: 26%; “548077 (eA*eT*kT*dT*dG*dT*dT*dA*d[5mC]*d[5mC]*dA*dA*dA*kG*kG*eA; antisense) [compound 548077]”: 51%.
Same read-out and setting: with “548078 (eT*e[5mC]*kT*dT*d[5mC]*dA*dT*dT*dT*dG*dT*dT*dA*k[5mC]*k[5mC]*eA; antisense) [compound 548078]” the figure was 36%; with “548079 (e[5mC]*e[5mC]*kT*dT*d[5mC]*dT*dT*dT*dA*dT*dA*dG*d[5mC]*k[5mC]*kA*eG; antisense) [compound 548079]”, 39%.
On the same count and under the same terms, with “548080 (e[5mC]*e[5mC]*k[5mC]*dT*dT*d[5mC]*dT*dT*dT*dA*dT*dA*dG*k[5mC]*k[5mC]*eA; antisense) [compound 548080]” the figure was 0%.
In the case of “548081 (e[5mC]*e[5mC]*k[5mC]*d[5mC]*dT*dT*d[5mC]*dT*dT*dT*dA*dT*dA*kG*k[5mC]*e[5mC]; antisense) [compound 548081]”, the “% inhibition” value is given as 64%.
Same read-out and setting: with “548082 (eA*eA*kG*d[5mC]*dA*dT*d[5mC]*dT*dT*dT*dT*d[5mC]*d[5mC]*k[5mC]*k[5mC]*e[5mC]; antisense) [compound 548082]” the figure was 42%.
On the same count and under the same terms, with “548083 (eA*eG*kG*dG*dA*d[5mC]*d[5mC]*dA*d[5mC]*d[5mC]*dT*dG*dA*kA*kT*e[5mC]; antisense) [compound 548083]” the figure was 0%; with “548084 (eA*eA*kG*dG*dG*dA*d[5mC]*d[5mC]*dA*d[5mC]*d[5mC]*dT*dG*kA*kA*eT; antisense) [compound 548084]”, 0%; with “548085 (antisense eT*eA*kA*dG*dG*dG*dA*d[5mC]*d[5mC]*dA*d[5mC]*d[5mC]*dT*kG*kA*eA) [compound 548085]”, 8%.
Still for that read-out and setting: with “548086 (antisense e[5mC]*eT*kA*dA*dG*dG*dG*dA*d[5mC]*d[5mC]*dA*d[5mC]*d[5mC]*kT*kG*eA) [compound 548086]” the figure was 36%.
“548087 (antisense eA*e[5mC]*kT*dA*dA*dG*dG*dG*dA*d[5mC]*d[5mC]*dA*d[5mC]*k[5mC]*kT*eG) [compound 548087]”: the “% inhibition” value came out at 24%.
On to “548088 (antisense eA*eA*k[5mC]*dT*dA*dA*dG*dG*dG*dA*d[5mC]*d[5mC]*dA*k[5mC]*k[5mC]*eT) [compound 548088]”, for which the “% inhibition” value was found to be 27%.
As to “548089 (antisense eA*eA*kA*d[5mC]*dT*dA*dA*dG*dG*dG*dA*d[5mC]*d[5mC]*kA*k[5mC]*e[5mC]) [compound 548089]”, the “% inhibition” value is given as 34%.
The same measure, in the same setting: next, “548090 (antisense e[5mC]*eA*kA*dA*d[5mC]*dT*dA*dA*dG*dG*dG*dA*d[5mC]*k[5mC]*kA*e[5mC]) [compound 548090]”: 46%; “548091 (antisense eT*eG*k[5mC]*dA*dA*dA*d[5mC]*dT*dA*dA*dG*dG*dG*kA*k[5mC]*e[5mC]) [compound 548091]”: 62%.
The same measure, in the same setting: next, “548092 (antisense eT*eT*kG*d[5mC]*dA*dA*dA*d[5mC]*dT*dA*dA*dG*dG*kG*kA*e[5mC]) [compound 548092]”: 30%; “548093 (antisense eT*eT*kT*dG*d[5mC]*dA*dA*dA*d[5mC]*dT*dA*dA*dG*kG*kG*eA) [compound 548093]”: 0%; “548094 (antisense eG*eT*kT*dT*dG*d[5mC]*dA*dA*dA*d[5mC]*dT*dA*dA*kG*kG*eG) [compound 548094]”: 74%.
As to “548095 (antisense eT*eG*kT*dT*dT*dG*d[5mC]*dA*dA*dA*d[5mC]*dT*dA*kA*kG*eG) [compound 548095]”, the “% inhibition” value is listed as 35%.
On the same count and under the same terms, with “548096 (antisense eG*eT*kG*dT*dT*dT*dG*d[5mC]*dA*dA*dA*d[5mC]*dT*kA*kA*eG) [compound 548096]” the figure was 23%; with “548097 (antisense eT*eG*k[5mC]*dT*d[5mC]*d[5mC]*d[5mC]*dT*dG*d[5mC]*dG*dG*dG*k[5mC]*kA*e[5mC]) [compound 548097]”, 2%; with “548098 (antisense eA*eG*kA*d[5mC]*dA*d[5mC]*d[5mC]*dA*dG*dG*dT*dT*dG*k[5mC]*kT*e[5mC]) [compound 548098]”, 0%.
As for “548099 (antisense e[5mC]*eT*k[5mC]*dA*dG*d[5mC]*dG*dA*d[5mC]*dT*dT*dT*dG*kG*kT*eG) [compound 548099]”, the “% inhibition” value came to 55%.
Still for that read-out and setting: with “548100 (antisense eA*e[5mC]*kT*d[5mC]*dA*dG*d[5mC]*dG*dA*d[5mC]*dT*dT*dT*kG*kG*eT) [compound 548100]” the figure was 25%; with “548101 (antisense eT*eA*k[5mC]*dT*d[5mC]*dA*dG*d[5mC]*dG*dA*d[5mC]*dT*dT*kT*kG*eG) [compound 548101]”, 47%; with “548102 (antisense eG*eT*kA*d[5mC]*dT*d[5mC]*dA*dG*d[5mC]*dG*dA*d[5mC]*dT*kT*kT*eG) [compound 548102]”, 58%.
On the same count and under the same terms, next, “548103 (antisense eT*eG*kT*dA*d[5mC]*dT*d[5mC]*dA*dG*d[5mC]*dG*dA*d[5mC]*kT*kT*eT) [compound 548103]”: 66%; “548104 (antisense eA*eT*kG*dT*dA*d[5mC]*dT*d[5mC]*dA*dG*d[5mC]*dG*dA*k[5mC]*kT*eT) [compound 548104]”: 59%.
